Measured values as given in US20220062240A1, “METHODS OF TREATING CANCER USING A CLK INHIBITOR” (BioSplice Therapeutics, Inc., priority 2018, published 2022).

Key:
466 kinases [1] = assay: Full kinome screen (ThermoFisher SelectScreen); assay type: biochemical
466 kinases [2] = test system: T1, 466 kinases; assay: Full kinome screen (ThermoFisher SelectScreen); assay type: biochemical; settings: range over the four kinases; read-out: IC50 of DYRK kinases (DYRK1A, -1B, -2 and -4)
T1 construct: other: range over the four kinases

[3] = test system: EF1α-luciferase reporter in SW480 cells; assay: Control EF1α-luciferase reporter counterscreen; assay type: cell-based; settings: Homo sapiens, non-specific control reporter, read-out: EC50 EF1α-luciferase reporter (EF1α-LucF)
Experimental: Human colorectal cancer cell line SW480, stably expressing the Wnt responsive TOPflash promoter linked to luciferase gene (TOPflash) was used along with SW480 stably expressing a control EF1a-Luciferase reporter gene (GenTarget #LVP434) as a counterscreen. […] Cells were plated at ˜10,000 cells/well and incubated for 40 hours. Luminescence was detected using Bright-Glo (Promega Corp.).

C2BBel = assay: CellTiter-Blue Cell Viability Assay; assay type: cell-based; settings: Homo sapiens, 96 h, KRASwt, APCmut, 4 days
Experimental: (§1) […]. Effect on cell proliferation was performed using the CellTiter-Blue*® viability assay or the CellTiter-Glo© Viability Assay as recommended by the manufacturer (Promega).
(§2) […]. Fluorescence signal was measured at 560ex/590em nm using the Cytation3 multimodal plate reader (BioTek).

COLO 320HSR = assay: CellTiter-Blue Cell Viability Assay; assay type: cell-based; settings: Homo sapiens, 96 h, KRASwt, APCmut, 4 days
Experimental: as §1, §2

HCT 116 = assay: CellTiter-Blue Cell Viability Assay; assay type: cell-based; settings: Homo sapiens, 96 h; HCT 116, KRASmut, CTNNB1mut, 4 days
Experimental: as §1, §2

HuTu 80 = assay: CellTiter-Blue Cell Viability Assay; assay type: cell-based; settings: Homo sapiens, HuTu80, 96 h; HuTu 80, KRASwt, CTNNB1mut, 4 days
Experimental: as §1, §2

LS123 = assay: CellTiter-Blue Cell Viability Assay; assay type: cell-based; settings: Homo sapiens, LS-123, 96 h; LS123, KRASmut, APCmut, 4 days
Experimental: as §1, §2

LoVo = assay: CellTiter-Blue Cell Viability Assay; assay type: cell-based; settings: Homo sapiens, 96 h, KRASmut, APCmut, 4 days
Experimental: as §1, §2

RKO = assay: CellTiter-Blue Cell Viability Assay; assay type: cell-based; settings: Homo sapiens, 96 h, KRASwt, BRAFmut, 4 days
Experimental: as §1, §2

SW480 = assay: CellTiter-Blue Cell Viability Assay; assay type: cell-based; settings: Homo sapiens, 96 h; SW480, KRASmut, APCmut, 4 days
Experimental: as §1, §2

SW48 = assay: CellTiter-Blue Cell Viability Assay; assay type: cell-based; settings: Homo sapiens, 96 h; SW48, KRASwt, APCmut, CTNNB1mut, 4 days
Experimental: as §1, §2

SW620 = assay: CellTiter-Blue Cell Viability Assay; assay type: cell-based; settings: Homo sapiens, SW-620, 96 h; SW620, KRASmut, APCmut, 4 days
Experimental: as §1, §2

AGS = assay: CellTiter-Blue Cell Viability Assay; assay type: cell-based; settings: Homo sapiens, 96 h, CDH1, CTNNB1, KRAS, PIK3CA, 4 days
Experimental: (§3) Effect on cell proliferation was performed using the CellTiter-Blue*® viability assay or the CellTiter-Glo© Viability Assay as recommended by the manufacturer (Promega).
(§4) Cells were plated in a black-walled, clear-bottomed 96-well plates with ˜1.5-3.0×10^3 cells/well in appropriate medium containing 10% FBS. […] Fluorescence signal was measured at 560ex/590em nm using the Cytation3 multimodal plate reader (BioTek).

KATO III = assay: CellTiter-Blue Cell Viability Assay; assay type: cell-based; settings: Homo sapiens, 96 h, TP53, 4 days
Experimental: as §3, §4

NCI-N87 = assay: CellTiter-Blue Cell Viability Assay; assay type: cell-based; settings: Homo sapiens, 96 h; NCI-N87, TP53, SMAD4, HER2 amplification, 4 days
Experimental: as §3, §4

SNU-1 = assay: CellTiter-Blue Cell Viability Assay; assay type: cell-based; settings: Homo sapiens, SNU1, 96 h; SNU-1, KRAS, MLH1, 4 days
Experimental: as §3, §4

SNU-5 = assay: CellTiter-Blue Cell Viability Assay; assay type: cell-based; settings: Homo sapiens, 96 h; SNU-5, TP53, CDKN2A, CDH1, 4 days
Experimental: as §3, §4

With `CN1CCN(c2cc(C(=O)Nc3cc4cc(-c5cnn(C)c5)ccc4cn3)ccn2)CC1` [Compound 12] the “inhibition of other CDKs at IC50 <0.05 μM” value (466 kinases [1]) was “no other CDKs were inhibited”, the “share of the 466 kinases evaluated that were inhibited besides CLKs” value (466 kinases [1]) was 4% and the “kinases inhibited besides CLKs” value (466 kinases [1]; wild type kinases, of 466 evaluated) was 19. The IC50 (466 kinases [2]) was 0.002 to 0.013 µM, the EC50 [3] was greater than 10 µM and the EC50 (C2BBel) was 0.078 µM. It also gave an EC50 (COLO 320HSR) of 0.11 µM, an EC50 (HCT 116) of 0.103 µM and an EC50 (HuTu 80) of 0.178 µM. The EC50 (LS123) was 0.472 µM, the EC50 (LoVo) was 0.194 µM and the EC50 (RKO) was 0.12 µM. The EC50 (SW480) was 0.085 µM, the EC50 (SW48) was 0.091 µM and the EC50 (SW620) was 0.087 µM. The EC50 (AGS) was 0.185 µM, the EC50 (KATO III) was 0.447 µM and the EC50 (NCI-N87) was 0.017 µM. The EC50 (SNU-1) was 0.031 µM and the EC50 (SNU-5) was 0.28 µM.
